Test [1] addresses T1, MCR-4 (Homo sapiens, UniProt P32245).
T1 construct: expressed in transfected cells; host or cells: HEK 293
In words: Melanocortin receptor binding assay, competition with 125I-HP 467, HEK 293 cells expressing hMCR-4. As to conditions: TRG 2414 library, inhibition of binding of 125I-HP 467, HEK 293 cells expressing MCR-4; for IC50: read-out: MC-4 IC50. How it is done:
All cell culture media and reagents were obtained from GibcoBRL (Gaithersburg Md.), except for COSMIC CALF SERUM (HyClone; Logan Utah).
Cells were suspended in PBS, 10% COSMIC CALF SERUM and 1 mM CaCl2. Cell suspensions were prepared at a density of 2×10^4 cells/ml for HEK 293 cells expressing hMCR-3, hMCR-4 or hMCR-5, and 1×10^5 cells/ml for HEK 293 cells expressing hMCR-1. Suspensions were placed in a water bath and allowed to warm to 37° C. for 1 hr.
Binding assays were performed in a total volume of 250 μl for HEK 293 cells. […] To each tube was added 4×10^3 HEK 293 cells expressing hMCR-3, hMCR-4 or hMCR-5, or 2×10^4 cells expressing hMCR-1. Assays were incubated for 2.5 hr at 37° C.
GF/B filter plates were prepared by soaking for at least one hour in 5 mg/ml BSA and 10 mM CaCl2. Assays were filtered using a Brandel 96-well cell harvester (Brandel Inc.; Gaithersburg, Md.). The filters were washed four times with cold 50 mM Tris, pH 7.4, the filter plates were dehydrated for 2 hr and 35 μl of MICROSCINT was added to each well. Filter plates were counted using a Packard Topcount (Packard Instrument Co.) and data analyzed using GraphPad PRISM v2.0 (GraphPad Software Inc.; San Diego Calif.) and Microsoft EXCEL v5.0a (Microsoft Corp.; Redmond Wash.).
To assay isoquinoline compounds, binding assays were performed in duplicate in a 96 well format. […] A 0.2 ml aliquot of suspended cells was added to each well to give the cell numbers indicate above, and the cells were incubated at 37° C. for 2.5 hr. Cells were harvested on GF/B filter plates as described above and counted.

The target of test [2] is T2, MCR-1 (Homo sapiens, UniProt Q01726).
T2 construct: expressed in transfected cells; host or cells: HEK 293
T2 sequence (Q01726 whole entry): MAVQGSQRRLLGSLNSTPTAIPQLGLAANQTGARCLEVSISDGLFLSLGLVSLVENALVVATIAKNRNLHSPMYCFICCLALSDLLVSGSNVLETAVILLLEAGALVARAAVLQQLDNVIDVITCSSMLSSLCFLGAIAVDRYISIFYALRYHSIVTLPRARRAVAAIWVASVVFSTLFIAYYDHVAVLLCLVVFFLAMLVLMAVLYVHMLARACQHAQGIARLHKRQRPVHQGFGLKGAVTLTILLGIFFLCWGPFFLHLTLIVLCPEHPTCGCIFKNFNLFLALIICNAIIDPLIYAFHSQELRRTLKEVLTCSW
Kind of test: Melanocortin receptor binding assay, competition with 125I-HP 467, HEK 293 cells expressing hMCR-1. Conditions: TRG 2414 library, inhibition of binding of 125I-HP 467, HEK 293 cells expressing MCR-1; for IC50: read-out: MC-1 IC50. The method, boiled down: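 Intact-cell competition binding, 2.5 hr at 37 °C, in PBS/10% calf serum/1 mM CaCl2; hMCR-4 cells at 4×10^3 per tube, hMCR-1 cells at 2×10^4 per tube. Filtration on BSA/CaCl2-soaked GF/B, cold 50 mM Tris pH 7.4 washes, scintillation count.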

T1 sequence (P32245 whole entry): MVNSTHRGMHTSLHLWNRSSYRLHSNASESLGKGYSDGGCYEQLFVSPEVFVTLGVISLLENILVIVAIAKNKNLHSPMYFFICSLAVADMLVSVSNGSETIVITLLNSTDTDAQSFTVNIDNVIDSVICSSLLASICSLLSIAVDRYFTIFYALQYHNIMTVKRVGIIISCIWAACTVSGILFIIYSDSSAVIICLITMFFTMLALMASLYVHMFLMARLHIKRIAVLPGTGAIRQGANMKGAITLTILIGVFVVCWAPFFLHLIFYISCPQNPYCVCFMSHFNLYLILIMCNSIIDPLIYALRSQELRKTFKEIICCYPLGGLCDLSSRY

Usually IC50 stands for the concentration that inhibits the measured activity by half. With `CCCOc1ccc(C2C(CNCc3ccccc3)c3ccccc3CN2CCCCC(CN)NCc2ccccc2)cc1` (centres unmarked) [Cmpd 191], the figures for the concentration for half-maximal inhibition (IC50) in test [1] and in test [2] were 5.53 µM and 1.95 µM, respectively.

In the case of `CCCOc1ccc(C2C(CNC3CCCCCC3)c3ccccc3CN2CCCCC(N)CN)cc1` (centres unmarked) [Cmpd 193], the IC50 in test [1] stood at 6.59 µM; in test [2], 1.64 µM.

As to `CCCOc1ccc(C2C(CNC3CCCCCC3)c3ccccc3CN2CCCCC(CN)NCCc2ccccc2)cc1` (centres unmarked) [Cmpd 194], the results for the IC50 in test [1] and in test [2] were 5.09 µM and 3.86 µM, respectively.

For the compound `CCCOc1ccc(C2C(CNC3CCCCCC3)c3ccccc3CN2CCCCC(CN)NCc2ccccc2)cc1` (centres unmarked) [Cmpd 195], the 50% inhibitory concentration (IC50) was 4.07 µM in test [1] and 1.38 µM in test [2].

`CCCOc1ccc(C2C(CNC3CCCCCC3)c3ccccc3CN2CCCCC(CN)NCC(C)c2ccc(CC(C)C)cc2)cc1` (centres unmarked) [Cmpd 196]: the half-inhibitory concentration (IC50) in test [1] was found to be 37 µM; in test [2], 13.3 µM.

Take `CCCOc1ccc(C2C(CNC3CCCCC3)c3ccccc3CN2CCCCC(N)CN)cc1` (centres unmarked) [Cmpd 197]: the IC50 came out at 12.6 µM in test [1] and 0.419 µM in test [2].

For `CCCOc1ccc(C2C(CNC3CCCCC3)c3ccccc3CN2CCCCC(CN)NCCc2ccccc2)cc1` (centres unmarked) [Cmpd 198], the IC50 was found to be 3.68 µM in test [1] and 3 µM in test [2].

Regarding `CCCOc1ccc(C2C(CNC3CCCCC3)c3ccccc3CN2CCCCC(CN)NCc2ccccc2)cc1` (centres unmarked) [Cmpd 199], the results for the 50% inhibitory concentration (IC50) in test [1] and in test [2] were 5.15 µM and 1.29 µM, respectively.

As for `CCCOc1ccc(C2C(CNC3CCCCC3)c3ccccc3CN2CCCCC(CN)NCC(C)c2ccc(CC(C)C)cc2)cc1` (centres unmarked) [Cmpd 200], the IC50 in test [1] was determined as 16.8 µM; in test [2], 7.59 µM.

`NCC(N)CCCCN1Cc2ccccc2C(CNCc2ccccc2C(F)(F)F)C1c1ccccc1Br` (centres unmarked) [Cmpd 201]: in test [1], the “MC-4 IC50” value was “no fit”. The “MC-1 IC50” value in test [2] is “no fit”.

For `NCC(CCCCN1Cc2ccccc2C(CNCc2ccccc2C(F)(F)F)C1c1ccccc1Br)NCCc1ccccc1` (centres unmarked) [Cmpd 202], the IC50 in test [1] was 34.1 µM; in test [2] it was 21.8 µM.

Consider `NCC(CCCCN1Cc2ccccc2C(CNCc2ccccc2C(F)(F)F)C1c1ccccc1Br)NCc1ccccc1` (centres unmarked) [Cmpd 203], for which the IC50 in test [1] came out at 39.6 µM; in test [2] it was 30.2 µM.

Turning to `CC(C)Cc1ccc(C(C)CNC(CN)CCCCN2Cc3ccccc3C(CNCc3ccccc3C(F)(F)F)C2c2ccccc2Br)cc1` (centres unmarked) [Cmpd 204], the “MC-4 IC50” value in test [1] is “no fit”. Further, the “MC-1 IC50” value in test [2] is recorded as “no fit”.

With `CCOc1ccccc1CNCC1c2ccccc2CN(CCCCC(CN)NCCc2ccccc2)C1c1ccccc1Br` (centres unmarked) [Cmpd 206], the IC50 in test [1] amounted to 6.2 µM; in test [2] it was 7.04 µM.

On to `CCOc1ccccc1CNCC1c2ccccc2CN(CCCCC(CN)NCc2ccccc2)C1c1ccccc1Br` (centres unmarked) [Cmpd 207], for which the values for the IC50 in test [1] and in test [2] were 6.43 µM and 7.67 µM, respectively.

Regarding `CCOc1ccccc1CNCC1c2ccccc2CN(CCCCC(CN)NCC(C)c2ccc(CC(C)C)cc2)C1c1ccccc1Br` (centres unmarked) [Cmpd 208], the half-inhibitory concentration (IC50) in test [1] was 21.1 µM; in test [2], 34.4 µM.

`COc1ccccc1CCNCC1c2ccccc2CN(CCCCC(N)CN)C1c1ccccc1Br` (centres unmarked) [Cmpd 209]: the figures for the IC50 in test [1] and in test [2] were 1.37 µM and 1.71 µM, respectively.

Regarding `COc1ccccc1CCNCC1c2ccccc2CN(CCCCC(CN)NCCc2ccccc2)C1c1ccccc1Br` (centres unmarked) [Cmpd 210], the half-inhibitory concentration (IC50) is 4.43 µM in test [1] and 3.7 µM in test [2].

For `COc1ccccc1CCNCC1c2ccccc2CN(CCCCC(CN)NCc2ccccc2)C1c1ccccc1Br` (centres unmarked) [Cmpd 211], the IC50 in test [1] was 4.21 µM; in test [2], 3.56 µM.

With `COc1ccccc1CCNCC1c2ccccc2CN(CCCCC(CN)NCC(C)c2ccc(CC(C)C)cc2)C1c1ccccc1Br` (centres unmarked) [Cmpd 212], the IC50 in test [1] was 16.6 µM; in test [2], 18.3 µM.

With `NCC(N)CCCCN1Cc2ccccc2C(CNCCc2cccc(Cl)c2)C1c1ccccc1Br` (centres unmarked) [Cmpd 213], the IC50 in test [1] came out at 2.06 µM; in test [2], 6.48 µM.

`NCC(CCCCN1Cc2ccccc2C(CNCCc2cccc(Cl)c2)C1c1ccccc1Br)NCCc1ccccc1` (centres unmarked) [Cmpd 214]: the values for the IC50 in test [1] and in test [2] were 4.76 µM and 7.38 µM, respectively.

As for `NCC(CCCCN1Cc2ccccc2C(CNCCc2cccc(Cl)c2)C1c1ccccc1Br)NCc1ccccc1` (centres unmarked) [Cmpd 215], the half-maximal inhibitory concentration (IC50) was determined as 6.43 µM in test [1] and 8.51 µM in test [2].

Regarding `CC(C)Cc1ccc(C(C)CNC(CN)CCCCN2Cc3ccccc3C(CNCCc3cccc(Cl)c3)C2c2ccccc2Br)cc1` (centres unmarked) [Cmpd 216], the IC50 was 39 µM in test [1] and 48.3 µM in test [2].

Take `COc1cccc(CNCC2c3ccccc3CN(CCCCC(N)CN)C2c2ccccc2Br)c1` (centres unmarked) [Cmpd 217]: the IC50 amounted to 2.42 µM in test [1] and 5.56 µM in test [2].

With `COc1cccc(CNCC2c3ccccc3CN(CCCCC(CN)NCCc3ccccc3)C2c2ccccc2Br)c1` (centres unmarked) [Cmpd 218], the IC50 is 10.8 µM in test [1] and 8.2 µM in test [2].

`COc1cccc(CNCC2c3ccccc3CN(CCCCC(CN)NCc3ccccc3)C2c2ccccc2Br)c1` (centres unmarked) [Cmpd 219]: the IC50 in test [1] came to 9.59 µM; in test [2], 10.3 µM.

`COc1cccc(CNCC2c3ccccc3CN(CCCCC(CN)NCC(C)c3ccc(CC(C)C)cc3)C2c2ccccc2Br)c1` (centres unmarked) [Cmpd 220]: the IC50 is 35.1 µM in test [1] and 40.6 µM in test [2].

Take `COc1ccc(CNCC2c3ccccc3CN(CCCCC(N)CN)C2c2ccccc2Br)cc1` (centres unmarked) [Cmpd 221]: the half-maximal inhibitory concentration (IC50) in test [1] is 1.83 µM; in test [2], 6.61 µM.

On to `COc1ccc(CNCC2c3ccccc3CN(CCCCC(CN)NCCc3ccccc3)C2c2ccccc2Br)cc1` (centres unmarked) [Cmpd 222], for which the results for the IC50 in test [1] and in test [2] were 4.78 µM and 5.05 µM, respectively.

In the case of `COc1ccc(CNCC2c3ccccc3CN(CCCCC(CN)NCc3ccccc3)C2c2ccccc2Br)cc1` (centres unmarked) [Cmpd 223], the IC50 in test [1] was 8.22 µM; in test [2], 10.6 µM.

Consider `COc1ccc(CNCC2c3ccccc3CN(CCCCC(CN)NCC(C)c3ccc(CC(C)C)cc3)C2c2ccccc2Br)cc1` (centres unmarked) [Cmpd 224], for which the values for the IC50 in test [1] and in test [2] were 22.7 µM and 31.5 µM, respectively.

As for `COc1ccc(CCNCC2c3ccccc3CN(CCCCC(N)CN)C2c2ccccc2Br)cc1` (centres unmarked) [Cmpd 225], the IC50 in test [1] came to 2.04 µM; in test [2], 4.52 µM.

Regarding `COc1ccc(CCNCC2c3ccccc3CN(CCCCC(CN)NCCc3ccccc3)C2c2ccccc2Br)cc1` (centres unmarked) [Cmpd 226], the IC50 in test [1] amounted to 3.42 µM; in test [2], 5.17 µM.

With `COc1ccc(CCNCC2c3ccccc3CN(CCCCC(CN)NCc3ccccc3)C2c2ccccc2Br)cc1` (centres unmarked) [Cmpd 227], the IC50 in test [1] amounted to 3.71 µM; in test [2], 4.49 µM.

Take `COc1ccc(CCNCC2c3ccccc3CN(CCCCC(CN)NCC(C)c3ccc(CC(C)C)cc3)C2c2ccccc2Br)cc1` (centres unmarked) [Cmpd 228]: the IC50 worked out at 8.79 µM in test [1] and 17.7 µM in test [2].

For `NCC(N)CCCCN1Cc2ccccc2C(CNCc2ccccc2)C1c1ccccc1Br` (centres unmarked) [Cmpd 229], the concentration for half-maximal inhibition (IC50) was determined as 1.29 µM in test [1] and 8.63 µM in test [2].

On to `NCC(CCCCN1Cc2ccccc2C(CNCc2ccccc2)C1c1ccccc1Br)NCCc1ccccc1` (centres unmarked) [Cmpd 230], for which the results for the half-maximal inhibitory concentration (IC50) in test [1] and in test [2] were 5.46 µM and 6.48 µM, respectively.

`NCC(CCCCN1Cc2ccccc2C(CNCc2ccccc2)C1c1ccccc1Br)NCc1ccccc1` (centres unmarked) [Cmpd 231]: the IC50 in test [1] turned out to be 9.13 µM; in test [2], 11 µM.

In the case of `CC(C)Cc1ccc(C(C)CNC(CN)CCCCN2Cc3ccccc3C(CNCc3ccccc3)C2c2ccccc2Br)cc1` (centres unmarked) [Cmpd 232], the results for the IC50 in test [1] and in test [2] were 23.4 µM and 32.7 µM, respectively.

With `NCC(N)CCCCN1Cc2ccccc2C(CNC2CCCCCC2)C1c1ccccc1Br` (centres unmarked) [Cmpd 233], the IC50 in test [1] stood at 3.27 µM; in test [2], 3.32 µM.

In the case of `NCC(CCCCN1Cc2ccccc2C(CNC2CCCCCC2)C1c1ccccc1Br)NCCc1ccccc1` (centres unmarked) [Cmpd 234], the figures for the IC50 in test [1] and in test [2] were 5.28 µM and 4.41 µM, respectively.

Take `NCC(CCCCN1Cc2ccccc2C(CNC2CCCCCC2)C1c1ccccc1Br)NCc1ccccc1` (centres unmarked) [Cmpd 235]: the IC50 in test [1] came out at 5.35 µM; in test [2], 2.86 µM.

`CC(C)Cc1ccc(C(C)CNC(CN)CCCCN2Cc3ccccc3C(CNC3CCCCCC3)C2c2ccccc2Br)cc1` (centres unmarked) [Cmpd 236]: the IC50 in test [1] is 18 µM; in test [2], 14 µM.

For `NCC(N)CCCCN1Cc2ccccc2C(CNC2CCCCC2)C1c1ccccc1Br` (centres unmarked) [Cmpd 237], the 50% inhibitory concentration (IC50) in test [1] was found to be 3.61 µM; in test [2], 5.87 µM.

`NCC(CCCCN1Cc2ccccc2C(CNC2CCCCC2)C1c1ccccc1Br)NCCc1ccccc1` (centres unmarked) [Cmpd 238]: the IC50 in test [1] came out at 5.22 µM; in test [2] it was 2.78 µM.

Values taken from patent US6608082B1, “Treatment of erectile dysfunction using isoquinoline compound melanocortin receptor ligands” (Lion Bioscience AG, priority 1998, dated 2003).
